Test results from patent US8404284B2, “Medicinal and herbal composition and uses thereof” (priority 2010, dated 2013).

How the values were obtained:
[1] = Treatment of mild myocarditis / tachycardia in subjects; format: in vivo, human; details: for Response of mild myocarditis: four subjects
Excerpt: Rogers et. al. described an IRIS case which manifested in the form of fulminant myocarditis. […] All four subjects of the instant experiment had no previous heart condition and were started with the HC alone, but were given LDN after the first mortality had occurred.
They were turned down several times to be a participant in the herbal program because they refused to take their spouse for counseling. […] They were diagnosed with borderline cardiomegaly around one year after initially testing HIV positive, and developed tachycardia, but had no subjective complaint and never developed fever. We maintained them on Lanoxin 250 μg, which controlled their heart rate below 100 beats/minute, and also started them on LDN.

[2] = Clinical observation of adverse effects; format: in vivo, human; details: 960 mg tablets daily
Method: Patients were tested weekly for progress and toxicities. We then determined a dose which can be tolerated by most of the patients, and recruited more subjects. In a preferred embodiment, two HC's (one each, B.I.D), approximately equal to 500 mg of the active ingredients of U.S. Pat. No. 7,556,830 per day, are administered. However, adjustments must be made according to the body weight of the subject, and lesser or higher dosages of as low as 100 mg and as high as 1 g, can be deployed. As a majority of the patients' health improved, we progressively scheduled their appointments further apart, to once every two weeks, and then, on a monthly basis.

[3] = cited from earlier work
HIV = details: LDN alone on HIV+ subjects; stated by Bihari; cited from earlier work

For `C[C@H]1O[C@@H](O[C@H]2[C@@H](O)C[C@H](O[C@H]3[C@@H](O)C[C@H](O[C@H]4CC[C@@]5(C)[C@H](CC[C@@H]6[C@@H]5C[C@@H](O)[C@]5(C)[C@@H](C7=CC(=O)OC7)CC[C@]65O)C4)O[C@@H]3C)O[C@@H]2C)C[C@H](O)[C@@H]1O` [digoxin], the “Response of mild myocarditis” value [1] was “responded promptly” and the Heart rate ([1]; patient, tachycardia, 250 μg) was “below 100 beats/minute”.
In the case of `NS(=O)(=O)c1cc(C(=O)O)c(NCc2ccco2)cc1Cl` [furosemide], the “Response of mild myocarditis” value [1] is reported as “responded promptly”.
For cotrimoxazole, the Bone marrow suppression [2] was “several patients developed bone marrow suppression”.
In the case of `O=C1CC[C@@]2(O)[C@H]3Cc4ccc(O)c5c4[C@@]2(CCN3CC2CC2)[C@H]1O5` [Naltrexone, 17-(cyclopropylmethyl)-4,5α-epoxy-3,14-dihydroxymorphinan-6-one], the Bioavailability [3] is given as 5-40% and the “Effect on CD4 count” value (HIV) is given as “does not increase CD4 count, but only maintains its level or delays its decrease”.
